Experimental data reported in US9765115B2, “Inhibitors of metastasis, methods of generating such inhibitors and their therapeutic applications” (Board of Supervisors of Louisiana State University acting …, priority 2011, dated 2017).
Entries after “also recorded” stand apart in the source; their conditions may differ.

Experiments:
Assay type in all cases: cell-based
[1] = tested on: PC-3CTRwt cells; assay: Transepithelial electric resistance (TER)
Protocol: (§1) Cells were plated on Transwell filters (0.4 μm pore size) and grown to confluency in complete medium (RPMI1640 containing 10% fetal bovine serum, 20 mM HEPES and antibiotics). TER of the cultures (in duplicate wells) was measured at several time intervals with EVOM volt-ohm meter as previously described (Shah et al, 2009). The readings were corrected for blank (TER values from the filter in bathing medium). The integrity and cell density of monolayers were carefully monitored.
To examine the effect of calcitonin (CT) on tight junctions (TJs), the transepithelial electric resistance (TER) of polarized PC-3 cells expressing either the vector (PC-3V), CTRwt or CTRΔESS was monitored for 8 hours after CT stimulation (FIG. 2A). Polarized PC-3V, PC-3 CTRwt and PC-3 CTR-ΔESS cells were serum-starved for 4 hours, then treated with or without 50 nM CT. TER was measured with EVOM volt-ohm meter, and results expressed as Ωcm^2±SEM (n=6). […] Since PC-3 cells secrete CT, the expression of CTRwt may have activated CT-CTR axis causing almost 40% reduction of TER in PC-3CTRwt cells.
The effect of CT on TJ functionality was tested by monitoring TER of PC-3CTRwt monolayers. […] Polarized PC-3-CTRwt cells were serum-starved for 4 hours, then treated with or without 50 nM CT. TER was measured with EVOM volt-ohm meter. The results are expressed as TER ±SEM (Ωcm^2±SEM; n=6). […] PCP was determined by diffusion of ˜4 kDa TRITC-conjugated dextran from the upper to the lower chamber in one hour. The results are expressed as μg/ml/hour of TRITC-Dextran diffused ±SEM (n=6; *p<0.05 (−CT v +CT, One way ANOVA and Newman-Keul's test)).
To understand the significance of CT-induced, PKA-dependent disassembly of TJs in PC cell adhesion and invasion, the action of CT was examined on TER, PCP, cell adhesion and invasion in PC-3CTRwt cells in the presence/absence of mPKI. […] Similarly, mPKI abrogated the actions of CT on PCP and invasion (FIGS. 20B and 20C respectively). Next, the adhesion of PC-3CTRwt cells was examined on culture dishes.

[2] = tested on: LNCaP, PC-3M and DU-145 cell lines; assay: Transepithelial electric resistance (TER); details: 50 nM CT
Protocol: as §1
Whether CT produces similar effects in LNCaP, PC-3M and DU-145 cell lines, which endogenously express CTR, was examined as shown in FIG. 1A. FIGS. 9A-9B depict the effect of CT on tight junction (TJ) disruption as measured using TER and PCP in the three prostate cancer cell lines—LNCaP, PC-3M, and DU-145. […] In FIG. 9B, cells were treated with and without 50 nM CT, and PCP determined by diffusion of ˜4 kDa TRITC-conjugated dextran from the upper to the lower chamber in one hour. The results are expressed as μg/ml/hour of TRITC-Dextran diffused ±SEM (n=6; *p<0.05 (−CT v +CT, One way ANOVA and Newman-Keul's test)). […] Cells were added to upper insert of invasion chambers with or without 50 nM CT, and cells that passed through the Matrigel™ barrier were counted after 48 h. The results are expressed as mean number of invaded cells per 400× field ±SEM (n=6; *p<0.05).

[3] = tested on: PC-3M cells expressing ZO-1-wt or its ΔPDZ mutants; assay: Transepithelial electric resistance (TER); details: CT 50 nM
Protocol: as §1
Since ZO-1 contains three PDZ domains, which of these interacts with CTR-C PDZ-binding motif was analyzed. PC-3M cells was used for this study because they are PC-3-derived, but co-express both CT and CTR, and are suitable to examine modulation of CTR action in response to mutations in ZO-1 (Chien et al., 2001). To knock down endogenous ZO-1 expression, PC-3M cells were stably transfected with constitutive ZO-1 shRNA expression vector (pSuper.neo system; shRNA duplex-5′-GACGAGAUAAUCCUCAUUUtt-3′ (SEQ ID NO:8) corresponding to 596-614 bp of ZO-1 mRNA). Since the constitutive presence of ZO-1 siRNA in PC-3M cells could interfere with the re-expression of ZO-1 wt or its ΔPDZ mutants, ZO-1 (wt or ΔPDZ mutants) cDNA expression vectors refractory to ZO-1 RNAi were generated by introducing a silent mutation in RNAi target sequence in the ZO-1 transgene. […]

[4] = tested on: LNCaP, DU-145 and PC-3M cells; assay: Matrigel in vitro invasion assay; details: 50 nM CT, 48 h
Protocol: Invasion experiments were conducted in Matrigel™ invasion chambers as previously described (Sabbisetti et al., 2005).
Whether CT produces similar effects in LNCaP, PC-3M and DU-145 cell lines, which endogenously express CTR, was examined as shown in FIG. 1A. FIGS. 9A-9B depict the effect of CT on tight junction (TJ) disruption as measured using TER and PCP in the three prostate cancer cell lines—LNCaP, PC-3M, and DU-145. Cells were serum-starved for 4 hours, then treated with and without 50 nM CT, before measuring TER as described above. In FIG. 9B, cells were treated with and without 50 nM CT, and PCP determined by diffusion of ˜4 kDa TRITC-conjugated dextran from the upper to the lower chamber in one hour. The results are expressed as μg/ml/hour of TRITC-Dextran diffused ±SEM (n=6; *p<0.05 (−CT v +CT, One way ANOVA and Newman-Keul's test)). FIG. 9C depicts effects of CT on cell invasion in the same three cell lines—PC-3M, LNCaP, and DU145. Cells were added to upper insert of invasion chambers with or without 50 nM CT, and cells that passed through the Matrigel™ barrier were counted after 48 h. The results are expressed as mean number of invaded cells per 400× field ±SEM (n=6; *p<0.05).

calcitonin [CT] was tested, and the TER ([1]; 50 nM CT) was “decreased TER even further; also recorded: relatively rapid decline in TER; also recorded: steady, remarkable decline”, the “time at which decline in TER became apparent” value ([1]; 50 nM CT) was at most 10 min and the “time to remarkable drop in TER” value ([1]; 50 nM CT) was at most 30 min. The “TER at multiple CT concentrations” value ([1]; CT 10 and 100 nM) was “significant decrease”, the TER [2] was “reduced TER” and the TER ([3]; cells expressing ZO-1-ΔPDZ3) was “no decrease in TER”. For the same substance, the TER ([3]; cells re-expressing ZO-1-wt, ΔPDZ1 or ΔPDZ2) was “remarkable decline in TER” and the invasion [4] was “significantly increased”.
